Measured values taken from patent US20020151581A1, “Glucose and lipid lowering compounds” (priority 1998, published 2002).
Read-outs that look alike come from different tables or passages of the source. Marks after values point to notes of the source that are not given here.

Experiments:
Candida rugosa lipase = assay: Inhibition of Candida rugosa lipase toward emulsified triolein substrate PC/PI; assay type: biochemical
Description: Recombinant hormone-sensitive lipase protein isolated from a bacterial expression vector was pre-incubated with a compound of the invention (e.g., 100 μM) prior to the addition of substrate, emulsified triolein phosphatidylcholine/phosphatidylinositol (PC/PI), to initiate the reaction. At various time points, aliquots of the reaction were taken, and the level of glycerol used as an index of enzyme activity. Pharmacological specificity is determined by incubating test compound with other mammalian and non-mammalian lipase enzyme systems to assess inhibition of activity. The assay was conducted using triolein concentrations from 42 μM to 835 μM.

C57/B16J lean mice = assay: Circulating free fatty acid levels in overnight-fasted normal mice; assay type: in vivo; conditions: 50 mg/kg daily intraperitoneal for 2 weeks
Description: (§1) Male, C57/B16J lean mice were purchased from Jackson Laboratories, Bar Harbor, Me. Animals were housed and maintained in accordance with NIH guidelines and had free access to water and food ad libitum. Test compounds of the present invention were suspended in 0.25% methylcellulose (w/v in distilled water) and stored at −20° C. in single use aliquots. Animals received a daily dose via the intraperitoneal route of administration for 2 weeks. After the last dose, animals were fasted overnight. On the following morning, a 250 μl blood sample was drawn via the retro-orbital sinus into a tube containing an EDTA-saline solution and centrifuged at 1,200×g for 15 min. The plasma fraction was analyzed for non-esterified free fatty acid content (NEFA) using the NEFA C diagnostic kit (WAKO Chemicals USA, Richmond, Va.), and glycerol with the triglyceride GPO-Trinder diagnostic kit (Sigma) modified for use on a BM Hitachi 911 clinical chemistry analyzer. P-values from a student's t-test were calculated using the Prizm software data analysis program (Graphpad, Sorrento Calif.).

KK/Ay mice = assay: Effects in fasted KK/Ay mice (plasma lipids and glucose); assay type: in vivo; conditions: daily intraperitoneal for 2 weeks
Description: as §1
Male, KK/Ay mice were purchased from Clea Japan USA, Pennington, N.J. At 4 months of age, animals received daily intraperitoneal administration of 2α-benzoyloxy-5,7,8αH-eudesma-4(15), 11(13)-dien-8,12-olide for 2 weeks. As described in Example 10, fasting plasma NEFA values were obtained. In addition, cholesterol and triglycerides were measured using BM reagent assay kits on a BM Hitachi 911 clinical chemistry analyzer. […] Plasma glucose levels were measured using a Boehringer Mannheim reagent assay kits on a Boehringer Mannheim Hitachi 911 clinical chemistry w analyzer.

rabbits = conditions: cited from earlier work

SMILES: C=C1C(=O)O[C@@H]2C[C@@]3(C)C[C@@H](OC(=O)c4ccccc4)CC(=C)[C@@H]3C[C@H]12 [2α-benzoyloxy-5,7,8αH-eudesma-4(15),11(13)-dien-8,12-olide]
- inhibition of Candida rugosa lipase (in words) (Candida rugosa lipase; emulsified triolein substrate PC/PI): did not inhibit enzyme activity
- % Inhibition (Candida lipase) (Candida rugosa lipase; triolein substrate 42 μM): 40%
- Candida Lipase + test compound (enzyme activity) (Candida rugosa lipase; triolein substrate 42 μM): 3.21
- % Inhibition (Candida lipase) (Candida rugosa lipase; triolein substrate 83.5 μM): −12%
- Candida Lipase + test compound (enzyme activity) (Candida rugosa lipase; triolein substrate 83.5 μM): 11.59
- % Inhibition (Candida lipase) (Candida rugosa lipase; triolein substrate 167 μM): 6.3%
- Candida Lipase + test compound (enzyme activity) (Candida rugosa lipase; triolein substrate 167 μM): 14.14
- % Inhibition (Candida lipase) (Candida rugosa lipase; triolein substrate 334 μM): 3.6%
- Candida Lipase + test compound (enzyme activity) (Candida rugosa lipase; triolein substrate 334 μM): 22.68
- % Inhibition (Candida lipase) (Candida rugosa lipase; triolein substrate 501 μM): −1.7%
- Candida Lipase + test compound (enzyme activity) (Candida rugosa lipase; triolein substrate 501 μM): 60.13
- % Inhibition (Candida lipase) (Candida rugosa lipase; triolein substrate 668 μM): −1.1%
- Candida Lipase + test compound (enzyme activity) (Candida rugosa lipase; triolein substrate 668 μM): 93.59
- % Inhibition (Candida lipase) (Candida rugosa lipase; triolein substrate 835 μM): 1.0%
- Candida Lipase + test compound (enzyme activity) (Candida rugosa lipase; triolein substrate 835 μM): 89.71
- NEFA (fasting plasma) (C57/B16J lean mice; vehicle 1.108): 0.808 mM
- Glycerol (fasting plasma) (C57/B16J lean mice; vehicle 36): 28^b mg/dl
- % reduction NEFA (C57/B16J lean mice; vs vehicle): 27%
- fasting plasma NEFA (KK/Ay mice): significant reductions
- plasma cholesterol (KK/Ay mice): significant reductions
- plasma glycerol (KK/Ay mice): significant reductions
- plasma triglycerides (KK/Ay mice): significant reductions
- fasting plasma glucose level (KK/Ay mice; control mice 184±24 mg/dL, p <0.01): 90 ± 29 mg/dL

SMILES: C=C1C(=O)O[C@@H]2C[C@@]3(C)CCC[C@H](C)C3=C[C@H]12 [alantolactone, 4,7,8αH-eudesma-5(6), 11(13)-dien-8,12-olide]
- effect on blood glucose (rabbits; moderate dose): induce hypoglycemia
- effect on hyperglycemia induced by food (rabbits; rabbit, in vivo): inhibit hyperglycemia induced by food
- effect on blood glucose (rabbits; rabbits, high dose): induce hyperglycemia
